Test results from ChEMBL document CHEMBL3045332, “Synthesis of some new 2,6-disubstituted-3(2H)-pyridazinone derivatives and investigation of their analgesic, anti-inflammatory and antimicrobial activities” (Med Chem Res, 2013).
≈ marks a conversion by molar mass, not a printed value.

Experiments:
Staphylococcus aureus [1] = assay: Antibacterial activity against methicillin-resistant Staphylococcus aureus clinical isolate after 24 hr by two-fold serial dilution method; type: functional
Mus musculus [2] = assay: Anti-inflammatory activity in Swiss albino Mus musculus (mouse) assessed as inhibition of carrageenan-induced paw edema at 100 mg/kg, po administered 60 min prior to crrageenan-challenge measured at 270 min relative to control; type: functional
Pseudomonas aeruginosa [3] = assay: Antibacterial activity against Pseudomonas aeruginosa cloinical isolate after 24 hr by two-fold serial dilution method; type: functional
Escherichia coli [4] = assay: Antibacterial activity against Escherichia coli ATCC 25922 after 24 hr by two-fold serial dilution method; type: functional; conditions: ATCC 25922, 24 h
Pseudomonas aeruginosa [5] = assay: Antibacterial activity against Pseudomonas aeruginosa ATCC 27853 after 24 hr by two-fold serial dilution method; type: functional; conditions: ATCC 27853, 24 h
Mus musculus [6] = assay: Ulcerogenic activity in p-benzoquinone-challenged Swiss albino Mus musculus (mouse) at 100 mg/kg, po administered 60 min prior to p-benzoquinone-challenge by microscopic analysis; type: toxicity, organism-based; parameters: dose 100 mg/kg, route oral; conditions: in vivo, 1 h
Escherichia coli [7] = assay: Antibacterial activity against Escherichia coli clinical isolate expressing extended spectrum beta-lactamase after 24 hr by two-fold serial dilution method; type: functional
Staphylococcus aureus [8] = assay: Antibacterial activity against Staphylococcus aureus ATCC 29213 after 24 hr by two-fold serial dilution method; type: functional; conditions: ATCC 29213, 24 h
Mus musculus [9] = assay: Analgesic activity in Swiss albino Mus musculus (mouse) assessed as inhibition of p-benzoquinone-induced writhing at 100 mg/kg, po administered 60 min prior to p-benzoquinone-challenge measured up to 15 min relative to control; type: functional
Candida albicans = assay: Antifungal activity against Candida albicans ATCC 10231 after 48 hr by two-fold serial dilution method; type: functional; conditions: ATCC 10231, 48 h
Pichia kudriavzevii = assay: Antifungal activity against Pichia kudriavzevii ATCC 6258 after 48 hr by two-fold serial dilution method; type: functional; conditions: ATCC 6258, 48 h
Enterococcus faecalis [10] = assay: Antibacterial activity against Enterococcus faecalis clinical isolate after 24 hr by two-fold serial dilution method; type: functional
Enterococcus faecalis [11] = assay: Antibacterial activity against Enterococcus faecalis ATCC 29212 after 24 hr by two-fold serial dilution method; type: functional; conditions: ATCC 29212, 24 h
Mus musculus [12] = assay: Anti-inflammatory activity in Swiss albino Mus musculus (mouse) assessed as inhibition of carrageenan-induced paw edema at 100 mg/kg, po administered 60 min prior to crrageenan-challenge measured at 360 min relative to control; type: functional
Mus musculus [13] = assay: Anti-inflammatory activity in Swiss albino Mus musculus (mouse) assessed as inhibition of carrageenan-induced paw edema at 100 mg/kg, po administered 60 min prior to crrageenan-challenge measured at 180 min relative to control; type: functional
Mus musculus [14] = assay: Anti-inflammatory activity in Swiss albino Mus musculus (mouse) assessed as inhibition of carrageenan-induced paw edema at 100 mg/kg, po administered 60 min prior to crrageenan-challenge measured at 90 min relative to control; type: functional
Mus musculus [15] = assay: Anti-inflammatory activity in Swiss albino Mus musculus (mouse) assessed as inhibition of carrageenan-induced paw edema at 10 mg/kg, po administered 60 min prior to crrageenan-challenge measured at 360 min relative to control; type: functional
Mus musculus [16] = assay: Anti-inflammatory activity in Swiss albino Mus musculus (mouse) assessed as inhibition of carrageenan-induced paw edema at 10 mg/kg, po administered 60 min prior to crrageenan-challenge measured at 270 min relative to control; type: functional
Mus musculus [17] = assay: Anti-inflammatory activity in Swiss albino Mus musculus (mouse) assessed as inhibition of carrageenan-induced paw edema at 10 mg/kg, po administered 60 min prior to crrageenan-challenge measured at 180 min relative to control; type: functional
Mus musculus [18] = assay: Anti-inflammatory activity in Swiss albino Mus musculus (mouse) assessed as inhibition of carrageenan-induced paw edema at 10 mg/kg, po administered 60 min prior to crrageenan-challenge measured at 90 min relative to control; type: functional

Row | SMILES | MIC (Staphylococcus aureus [1]) [µg/mL] | inhibition in vivo at 100 mg/kg (Mus musculus [2]) [%] | MIC (Pseudomonas aeruginosa [3]) [µg/mL] | MIC (Escherichia coli [4]) [µg/mL] | MIC (Pseudomonas aeruginosa [5]) [µg/mL] | Activity (Mus musculus [6]) | MIC (Escherichia coli [7]) [µg/mL] | MIC (Staphylococcus aureus [8]) [µg/mL] | inhibition in vivo at 100 mg/kg (Mus musculus [9]) [%] | MIC (Candida albicans) [µg/mL] | MIC (Pichia kudriavzevii) [µg/mL] | MIC (Enterococcus faecalis [10]) [µg/mL] | MIC (Enterococcus faecalis [11]) [µg/mL] | inhibition in vivo at 100 mg/kg (Mus musculus [12]) [%] | inhibition in vivo at 100 mg/kg (Mus musculus [13]) [%] | inhibition in vivo at 100 mg/kg (Mus musculus [14]) [%] | inhibition in vivo at 10 mg/kg (Mus musculus [15]) [%] | inhibition in vivo at 10 mg/kg (Mus musculus [16]) [%] | inhibition in vivo at 10 mg/kg (Mus musculus [17]) [%] | inhibition in vivo at 10 mg/kg (Mus musculus [18]) [%]
1 | O=c1ccc(-c2ccccc2)nn1CCN1CCN(c2ccccc2)CC1 | 128 (≈ 355 µM) | 6.4 | 64 (≈ 178 µM) | 64 (≈ 178 µM) | 64 (≈ 178 µM) | Non-toxic | 64 (≈ 178 µM) | 64 (≈ 178 µM) | 10.7 | 32 (≈ 88.8 µM) | 32 (≈ 88.8 µM) | 64 (≈ 178 µM) | 64 (≈ 178 µM) | 3.1 |  |  |  |  |  | 
2 | O=c1ccc(-c2ccccc2)nn1CCN1CCN(c2ccc(Cl)cc2)CC1 | 128 (≈ 324 µM) | 14.8 | 64 (≈ 162 µM) | 64 (≈ 162 µM) | 64 (≈ 162 µM) | Non-toxic | 64 (≈ 162 µM) | 64 (≈ 162 µM) | 23.3 | 32 (≈ 81 µM) | 32 (≈ 81 µM) | 64 (≈ 162 µM) | 64 (≈ 162 µM) | 12.1 | 14.9 | 16.2 |  |  |  | 
3 | O=c1ccc(-c2ccccc2)nn1CCN1CCN(c2ccc(F)cc2)CC1 | 128 (≈ 338 µM) | 29.9 | 64 (≈ 169 µM) | 64 (≈ 169 µM) | 64 (≈ 169 µM) | Non-toxic | 64 (≈ 169 µM) | 64 (≈ 169 µM) | 16.8 | 32 (≈ 84.6 µM) | 32 (≈ 84.6 µM) | 64 (≈ 169 µM) | 64 (≈ 169 µM) | 19.5 | 26.3 | 10.6 |  |  |  | 
4 | COc1ccc(N2CCN(CCn3nc(-c4ccccc4)ccc3=O)CC2)cc1 | 128 (≈ 328 µM) |  | 64 (≈ 164 µM) | 64 (≈ 164 µM) | 64 (≈ 164 µM) | Non-toxic | 64 (≈ 164 µM) | 64 (≈ 164 µM) | 8.6 | 32 (≈ 81.9 µM) | 32 (≈ 81.9 µM) | 64 (≈ 164 µM) | 64 (≈ 164 µM) |  |  |  |  |  |  | 
5 | COc1ccc(-c2ccc(=O)n(CCN3CCN(c4ccccc4)CC3)n2)cc1 | 128 (≈ 328 µM) |  | 64 (≈ 164 µM) | 64 (≈ 164 µM) | 64 (≈ 164 µM) | Non-toxic | 64 (≈ 164 µM) | 64 (≈ 164 µM) | 18.4 | 32 (≈ 81.9 µM) | 32 (≈ 81.9 µM) | 64 (≈ 164 µM) | 64 (≈ 164 µM) |  | 12.6 | 11.9 |  |  |  | 
6 | COc1ccc(-c2ccc(=O)n(CCN3CCN(c4ccc(Cl)cc4)CC3)n2)cc1 | 128 (≈ 301 µM) | 27.5 | 64 (≈ 151 µM) | 64 (≈ 151 µM) | 64 (≈ 151 µM) | Toxic | 64 (≈ 151 µM) | 64 (≈ 151 µM) | 44.4 | 32 (≈ 75.3 µM) | 32 (≈ 75.3 µM) | 64 (≈ 151 µM) | 64 (≈ 151 µM) | 26.2 | 19.8 | 16.9 |  |  |  | 
7 | COc1ccc(-c2ccc(=O)n(CCN3CCN(c4ccc(F)cc4)CC3)n2)cc1 | 128 (≈ 313 µM) | 22.9 | 64 (≈ 157 µM) | 64 (≈ 157 µM) | 64 (≈ 157 µM) | Toxic | 64 (≈ 157 µM) | 64 (≈ 157 µM) | 47.6 | 32 (≈ 78.3 µM) | 32 (≈ 78.3 µM) | 64 (≈ 157 µM) | 64 (≈ 157 µM) | 18.3 | 15.5 | 16.2 |  |  |  | 
8 | COc1ccc(-c2ccc(=O)n(CCN3CCN(c4ccc(OC)cc4)CC3)n2)cc1 | 128 (≈ 304 µM) | 13.6 | 64 (≈ 152 µM) | 64 (≈ 152 µM) | 64 (≈ 152 µM) | Non-toxic | 64 (≈ 152 µM) | 64 (≈ 152 µM) | 5.6 | 32 (≈ 76.1 µM) | 32 (≈ 76.1 µM) | 64 (≈ 152 µM) | 64 (≈ 152 µM) | 7.9 |  |  |  |  |  | 
9 | O=c1ccc(-c2ccc(Cl)cc2)nn1CCN1CCN(c2ccccc2)CC1 | 128 (≈ 324 µM) | 7.4 | 64 (≈ 162 µM) | 64 (≈ 162 µM) | 64 (≈ 162 µM) | Non-toxic | 64 (≈ 162 µM) | 64 (≈ 162 µM) | 20.1 | 32 (≈ 81 µM) | 32 (≈ 81 µM) | 64 (≈ 162 µM) | 64 (≈ 162 µM) |  | 1.4 |  |  |  |  | 
10 | O=c1ccc(-c2ccc(Cl)cc2)nn1CCN1CCN(c2ccc(Cl)cc2)CC1 | 128 (≈ 298 µM) | 31 | 64 (≈ 149 µM) | 64 (≈ 149 µM) | 64 (≈ 149 µM) | Non-toxic | 64 (≈ 149 µM) | 64 (≈ 149 µM) | 53.2 | 32 (≈ 74.5 µM) | 32 (≈ 74.5 µM) | 64 (≈ 149 µM) | 64 (≈ 149 µM) | 28.2 | 29.7 | 20.6 |  |  |  | 
11 | O=c1ccc(-c2ccc(Cl)cc2)nn1CCN1CCN(c2ccc(F)cc2)CC1 | 128 (≈ 310 µM) | 35.3 | 64 (≈ 155 µM) | 64 (≈ 155 µM) | 64 (≈ 155 µM) | Non-toxic | 64 (≈ 155 µM) | 64 (≈ 155 µM) | 57.5 | 32 (≈ 77.5 µM) | 32 (≈ 77.5 µM) | 64 (≈ 155 µM) | 64 (≈ 155 µM) | 28.8 | 28.3 | 29.5 |  |  |  | 
12 | COc1ccc(N2CCN(CCn3nc(-c4ccc(Cl)cc4)ccc3=O)CC2)cc1 | 128 (≈ 301 µM) | 18.5 | 64 (≈ 151 µM) | 64 (≈ 151 µM) | 64 (≈ 151 µM) | Non-toxic | 64 (≈ 151 µM) | 64 (≈ 151 µM) | 30.2 | 32 (≈ 75.3 µM) | 32 (≈ 75.3 µM) | 64 (≈ 151 µM) | 64 (≈ 151 µM) | 15.5 | 12.3 | 4.7 |  |  |  | 
13 | C[C@@H]1[C@H](O)[C@@H](C)/C=C/C=C/C=C/C=C/C=C/C=C/C=C/[C@H](O[C@@H]2O[C@H](C)[C@@H](O)[C@H](N)[C@@H]2O)C[C@@H]2O[C@](O)(C[C@@H](O)C[C@@H](O)[C@H](O)CC[C@@H](O)C[C@@H](O)CC(=O)O[C@H]1C)C[C@H](O)[C@H]2C(=O)O [AMPHOTERICIN B] |  |  |  |  |  |  |  |  |  | < 0.25 | 0.5 (≈ 0.541 µM) |  |  |  |  |  |  |  |  | 
14 | CC1(C)S[C@@H]2[C@H](NC(=O)[C@H](N)c3ccccc3)C(=O)N2[C@H]1C(=O)O [AMPICILLIN] | 32 (≈ 91.6 µM) |  |  | 8 (≈ 22.9 µM) |  |  | 64 (≈ 183 µM) | 2 (≈ 5.72 µM) |  |  |  | 4 (≈ 11.4 µM) | 2 (≈ 5.72 µM) |  |  |  |  |  |  | 
15 | CC(=O)Oc1ccccc1C(=O)O [ASPIRIN] |  |  |  |  |  | Toxic |  |  | 45.9 |  |  |  |  |  |  |  |  |  |  | 
16 | OC(Cn1cncn1)(Cn1cncn1)c1ccc(F)cc1F [FLUCONAZOLE] |  |  |  |  |  |  |  |  |  | 1 (≈ 3.27 µM) | 64 (≈ 209 µM) |  |  |  |  |  |  |  |  | 
17 | COc1ccc2c(c1)c(CC(=O)O)c(C)n2C(=O)c1ccc(Cl)cc1 [INDOMETHACIN] |  |  |  |  |  |  |  |  |  |  |  |  |  |  |  |  | 39.4 | 37.6 | 36.9 | 25.3
18 | CC1COc2c(N3CCN(C)CC3)c(F)cc3c(=O)c(C(=O)O)cn1c23 (configuration not stated) [OFLOXACIN] | 2 (≈ 5.53 µM) |  | 32 (≈ 88.6 µM) |  |  |  | 16 (≈ 44.3 µM) | 0.5 (≈ 1.38 µM) |  |  |  | 2 (≈ 5.53 µM) | 1 (≈ 2.77 µM) |  |  |  |  |  |  | 
